Measurements taken from patent publication US20240122865A1, “Methods of Protecting RNA” (Pfizer Inc., priority 2021, published 2024).

Legend:
Assay type in all cases: biochemical, Trichoderma atroviride
[1] = tested on: FgenL model RNA; experiment: TapeStation Assay, FgenL model RNA; parameters: Conc. FgenL#1 / Conc. FgenL#2: unit not given here; conditions: for % Control N = 1 / % Control N = 2 / % Control Average: FgenL RNA, 20 mM amino acids, 50 mM CAPS pH 11, 50° C. 15 min; for % Control N = 1 / % Control N = 2: vs Time 0; for % Control Average: vs Time 0, Avg N=2; for Conc. FgenL#1 / Conc. FgenL#2: intact FgenL RNA after 15 min at 50° C.; for Conc. FgenL#1: 20 mM amino acids in 50 mM CAPS pH 11, run #1; for Conc. FgenL#2: 20 mM amino acids in 50 mM CAPS pH 11, run #2
Experimental: (§1) These assays were performed with amino acids and compared to a no-degradation baseline control to gauge degree of protection imparted by the amino acid. Multiple functional assay approaches were used where differing endpoints were measured including a droplet digital PCR (ddPCR) assay where intact RNA sequence was quantitated, a size exclusion base hydrolysis degradation assay that used a size exclusion column to determine the degree of degradation occurring to an mRNA construct, and finally, a TapeStation assay that utilizes capillary electrophoresis and optical detection to measure intact RNA. […] Affinity selection by mass spectrometry (ASMS), native electrospray ionization mass spectrometry (nESI-MS) and nuclear magnetic resonance (NMR) may be used as several complementary approaches to ascertain compound binding to RNA. The latter techniques utilize MS to measure mass of bound compound alone (ASMS), or mass of RNA and bound compound (nESI-MS). The nESI-MS and NMR studies may be conducted to provide direct analytical quantification of resulting complex via measurement of mass (nESI-MS) or chemical shifts (NMR). The ASMS experiment is conducted to determine saturation binding of the compound to RNA where resulting apparent binding constants (KD,App) may be generated. Further descriptions of the functional and binding assays are provided in the section below.
(§2) In principle, samples are loaded to the instrument where electrophoresis separates component RNA's on the basis of mass, and subsequently analyzes these optically as they travel through the capillary.
(§3) RNA samples were diluted to the appropriate concentration to fall within the linear range of detection for the RNA ScreenTape Assay. Model Chi18 or FgenL RNAs were diluted to 50 ng/μL in 50 mM CAPS buffer pH 11. Amino acid stocks were made up in 50 mM CAPS pH 11 and re-adjusted to >pH 11 after solubilization. […] The samples were aliquoted to PCR tubes for each time point (Time 0 or 15 minutes). Degradation reaction: Samples were incubated at 50° C. for 0 to 15 minutes in a thermocycler, removed at the appropriate time point and placed on ice. Time 0 samples remained on ice.

[2] = tested on: Chi18 model RNA; experiment: TapeStation Assay, Chi18 model RNA; parameters: Conc. chi18#1 / Conc. chi18#2: unit not given here; conditions: for % Control N = 1 / % Control N = 2 / % Control Avg.: Chi18 RNA, 20 mM amino acids, 50 mM CAPS pH 11, 50° C. 15 min; for % Control N = 1 / % Control N = 2: vs Time 0; for % Control Avg.: vs Time 0, Avg N=2; for Conc. chi18#1: 20 mM amino acids in 50 mM CAPS pH 11, run #1
Experimental: as §1, §2, §3

[3] = tested on: FgenL model RNA; conditions: percent protection, pH 11.0, 44° C., 16 hours, n = 2
Experimental: (§4) The ddPCR assays measure RNA integrity by converting intact RNA to cDNA by reverse transcription, then performing digital PCR in thousands of nanoliter-sized droplets for each sample. PCR is performed within each droplet, which allows for more sensitive detection of subtle changes in RNA concentration compared to traditional PCR or qPCR. Additionally, primers/probes specific to the 5′ end of the RNA/cDNA transcript(s) are used to assess fragment integrity—e.g. degraded RNA will have fewer 5′ positive droplets. The BioRad QX200 Droplet Digital PCR System was used for the ddPCR workflow.
(§5) Basic assay procedure: RNA samples (Chi18 or FgenL fragments) were diluted to 25 fg/μL or 10 fg/μL, respectively, in 50 mM […] buffer pH 11.0. Amino acid stocks were made up in 50 mM CAPS buffer, pH 11.0 and subsequently re-adjusted to pH 11.0, post solubilization. Amino acid stocks were tested in a dose-response format to determine EC50. An amino acid dilution plate containing a ˜300 mM (or appropriate) top-concentration of amino acid in 50 mM CAPS buffer was serially (half-log) diluted for 10 times. 0.6 μL of this compound dilution plate was spotted into a 96-well PCR plate (Thermo). Sample RNAs were added (6 μL) and incubated with test amino acid as described below.
(§6) Degradation reaction: Treated RNAs were incubated for 16 hours at 30° C. for Chi18 samples or 44° C. for FgenL samples. Upon completion of the degradation reaction, cDNA was made from the intact RNA by Reverse Transcription and ddPCR run for each sample (96 well plates). Positive 5′ droplet values were divided by the total accepted droplet values for each sample and a ratio value generated for each sample.
(§7) EC50 was determined by using a four parameter logistic equation: Y=A+((B−A)/(1+(C/X)D)); where Y is percent protection, X is compound concentration, A and B are minimum and maximum asymptotes, respectively, C is EC50, and D is Hill slope.

[4] = target: Chi18 model RNA; experiment: Droplet Digital Polymerase Chain Reaction (ddPCR) Assay, Chi18; conditions: percent protection, pH 11.0, 30° C., 16 hours, n = 2
Experimental: as §4, §5, §6, §7

[5] = intact Chi18 RNA after 15 min at 50° C.

With `O[C@H](CS)[C@H](O)CS` (racemic) [DTT, dithiothreitol] the “% Control N = 1” value [1] was 8.3%, the “% Control N = 2” value [1] was 9.0% and the “% Control Average” value [1] was 8.7%. The “Conc. FgenL#1” value [1] was 2.86, the “Conc. FgenL#2” value [1] was 3.13 and the “% Control N = 1” value [2] was 10.7%. The “% Control N = 2” value [2] was 10.7%, the “% Control Avg.” value [2] was 10.7% and the “Conc. chi18#1” value [2, 5] was 5.68.
`N[C@@H](CSSC[C@H](N)C(=O)O)C(=O)O` [Cystine] was tested, and the EC50 [3] was > 30 mM, the “% Control N = 1” value [1] was 75.9% and the “% Control N = 2” value [1] was 64.6%. The “% Control Average” value [1] was 70.2%, the “Conc. FgenL#1” value [1] was 26.2 and the “Conc. FgenL#2” value [1] was 22.4. For the same compound, the “% Control N = 1” value [2] was 53.1%, the “% Control N = 2” value [2] was 42.7% and the “% Control Avg.” value [2] was 47.9%. For the same compound, the “Conc. chi18#1” value [2, 5] was 28.3, the “Conc. chi18#2” value ([2]; intact Chi18 RNA after 15 min at 50° C., 20 mM amino acids in 50 mM CAPS pH 11, run #2) was 22.6 and the EC50 [4] was > 29 mM.
For `O=C(O)CCP(CCC(=O)O)CCC(=O)O` [TCEP, tris(2-carboxyethyl)phosphine], the EC50 [3] was > 30 mM, the “% Control N = 1” value [1] was 5.0% and the “% Control N = 2” value [1] was 4.0%. The “% Control Average” value [1] was 4.5%, the “Conc. FgenL#1” value [1] was 1.71 and the “Conc. FgenL#2” value [1] was 1.38. For the same compound, the “% Control N = 1” value [2] was 2.6%, the “% Control N = 2” value [2] was 2.6% and the “% Control Avg.” value [2] was 2.6%. The “Conc. chi18#1” value [2, 5] was 1.41 and the EC50 [4] was > 30 mM.
